# PMC5970165, “Development and validation of a LC-MS/MS assay for pharmacokinetic studies of complement C5a receptor antagonists PMX53 and PMX205 in mice” (Scientific Reports, 2018)
# Several values for one entry are separate records, joined by “and”; a condition that tells them apart may be missing. Equal values may be shown once. Bridge positions count the residues as written; N and C are the ends. Square brackets hold non-standard residues; d marks the D form. Peptide text beside a SMILES is read from it. * marks the point of attachment. Hydrocinnamoyl = O=C(CCc1ccccc1)*; dCha = N[C@H](CC1CCCCC1)C(=O)O; Orn = NCCC[C@H](N)C(=O)O
# What was measured:
# in vivo = details: male, C57BL/6 J, mouse, iv, 1 mg/kg
# [1] = Serum stability, incubation at 37 °C; details: mouse serum, 1 µg/ml, up to 60 min
# [2] = Plasma stability, incubation at 37 °C; details: mouse plasma, 1 µg/ml, up to 60 min
# [3] = Gastric environment stability (gastric lavage fluid and gastric homogenate); details: 1 µg/ml, 37 °C, up to 60 min
# [4] = Intestinal environment stability (intestinal washing and intestinal homogenate); details: 1 µg/ml, 37 °C, up to 60 min
# [5] = Intravenous pharmacokinetics in mice (plasma, brain, spinal cord; LC-MS/MS, non-compartmental analysis); details: for MRT inf: MRT 0-inf_obs
# [6] = brain, single i.v. 1 mg/kg, mice
# [7] = male, C57BL/6 J, mouse, brain, iv, 1 mg/kg, single i.v. 1 mg/kg, mice
# [8] = male, C57BL/6 J, mouse, plasma, iv, 1 mg/kg
# [9] = male, C57BL/6 J, mouse, plasma, iv, 1 mg/kg, single i.v. 1 mg/kg, mice
# [10] = male, C57BL/6 J, mouse, spinal cord, iv, 1 mg/kg, single i.v. 1 mg/kg, mice
# [11] = spinal cord, single i.v. 1 mg/kg, mice
structure (smiles),measurement,setting,value
"CC(=O)N[C@@H](Cc1ccccc1)C(=O)N[C@H]1CCCNC(=O)[C@H](CCCNC(=N)N)NC(=O)[C@H](Cc2c[nH]c3ccccc23)NC(=O)[C@@H](CC2CCCCC2)NC(=O)[C@@H]2CCCN2C1=O [PMX53, Ac-Phe-[Orn-Pro-dCha-Trp-Arg]]",AUC(0-inf),in vivo,3830 ng·h/mL
same,AUC(0-t),in vivo,3410 ng·h/mL
same,clearance,in vivo,0.18 mL/min
same,Cmax,in vivo; Cmax,11900 ng/mL
same,Vd,in vivo; Vss_obs,0.00328 L
same,Vd,in vivo; Vz_obs,0.00826 L
"N=C(N)NCCC[C@@H]1NC(=O)[C@H](Cc2c[nH]c3ccccc23)NC(=O)[C@@H](CC2CCCCC2)NC(=O)[C@@H]2CCCN2C(=O)[C@@H](NC(=O)CCc2ccccc2)CCCNC1=O [PMX205, hydrocinnamate-[Orn-Pro-dCha-Trp-Arg]] (Hydrocinnamoyl-[Orn]P[dCha]WR; lactam 1-C)",stability in serum (percentage of concentration detected vs t = 0 min),[1],91.4 ± 1.4%
same,stability in plasma (percentage of concentration detected vs t = 0 min),[2],91.4 ± 3.1%
same,"stability in gastric homogenates (unchanged form, % of t = 0 min)",[3]; mouse gastric homogenates,6.7 ± 4.2%
same,"stability in gastric lavage (unchanged form, % of t = 0 min)",[3]; mouse gastric lavage fluid,< 25% and 23.3 ± 1.7%
same,stability in intestinal homogenates (unchanged form),[4]; mouse intestinal homogenates,greater than 35%
same,stability in intestinal washing (unchanged form),[4]; mouse intestinal washing,more than 85%
same,AUC 0-inf_obs,[5]; [6],12.18 µg·min/g
same,Cl_obs,[5]; [6],2.46 g/min
same,Vss_obs,[5]; [6],553.84 g
same,Vz_obs,[5]; [6],572.84 g
same,AUC(0-t),"[5]; brain, t = 90 min, single i.v. 1 mg/kg, mice",4.18 µg·min/g
same,Cmax,[5]; [7],108 ng/g
same,MRT inf,[5]; [7],3.75 h
same,half-life,"[5]; male, C57BL/6 J, mouse, brain, iv, 1 mg/kg, t1/2, brain, single i.v. 1 mg/kg, mice",2.69 h
same,AUC(0-inf),[5]; [8],5810 ng·h/mL
same,AUC(0-t),[5]; [8],5800 ng·h/mL
same,clearance,[5]; [8],0.086 mL/min
same,Cmax,[5]; [9],29000 ng/mL
same,MRT inf,[5]; [9],0.15 h
same,Vd,"[5]; male, C57BL/6 J, mouse, plasma, iv, 1 mg/kg, Vss_obs, plasma, single i.v. 1 mg/kg, mice",0.00079 L
same,Vd,"[5]; male, C57BL/6 J, mouse, plasma, iv, 1 mg/kg, Vz_obs, single i.v. 1 mg/kg, mice",0.00132 L
same,half-life,"[5]; male, C57BL/6 J, mouse, plasma, iv, 1 mg/kg, t1/2, plasma, single i.v. 1 mg/kg, mice",0.17 h
same,Cmax,[5]; [10],213 ng/g
same,MRT inf,[5]; [10],2.49 h
same,half-life,"[5]; male, C57BL/6 J, mouse, spinal cord, iv, 1 mg/kg, t1/2, spinal cord, single i.v. 1 mg/kg, mice",1.78 h
same,AUC 0-inf_obs,[5]; [11],17.42 µg·min/g
same,Cl_obs,[5]; [11],1.722 g/min
same,Vss_obs,[5]; [11],257.98 g
same,Vz_obs,[5]; [11],265.65 g
same,AUC(0-t),"[5]; spinal cord, t = 90 min, single i.v. 1 mg/kg, mice",7.95 µg·min/g
